Experimental data reported in US8697630B2, “Method for lowering insulin resistance” (Nestec S.A., priority 2005, dated 2014).

Tests used:
glucose transporter = target: T1, glucose transporter (Homo sapiens, UniProt P11166); conditions: cited from earlier work
T1 construct: various catechins tested on glucose transport from erythrocytes
T1 sequence (P11166 1-492): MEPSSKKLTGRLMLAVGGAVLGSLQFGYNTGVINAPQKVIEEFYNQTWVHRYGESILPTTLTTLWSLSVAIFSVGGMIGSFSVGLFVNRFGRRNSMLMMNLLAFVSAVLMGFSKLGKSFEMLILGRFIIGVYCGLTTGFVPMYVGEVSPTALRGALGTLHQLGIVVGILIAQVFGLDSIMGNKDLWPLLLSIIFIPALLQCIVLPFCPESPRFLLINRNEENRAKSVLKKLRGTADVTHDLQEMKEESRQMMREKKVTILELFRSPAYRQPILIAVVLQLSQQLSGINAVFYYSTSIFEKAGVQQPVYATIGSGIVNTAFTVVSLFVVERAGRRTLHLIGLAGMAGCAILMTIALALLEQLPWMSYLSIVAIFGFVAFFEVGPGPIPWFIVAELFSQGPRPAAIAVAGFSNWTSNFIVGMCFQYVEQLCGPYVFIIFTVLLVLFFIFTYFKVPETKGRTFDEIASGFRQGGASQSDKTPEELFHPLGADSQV

[1] = 1.5 mmole ingested, cited from earlier work
diabetic subjects = conditions: cited from earlier work; for plasma glucose peak level / time of plasma glucose peak: diabetic subjects; for change in insulin concentration: in vivo
healthy subjects = conditions: 50 g; cited from earlier work
Zucker fa/fa rats = conditions: 100 mg/kg for 3-weeks; vs control obese rats; cited from earlier work
adults = conditions: estimated; cited from earlier work
[2] = target: T2, protein tyrosine phosphatase-1B (Homo sapiens, UniProt P18031); conditions: cited from earlier work
T2 sequence (P18031 1-435): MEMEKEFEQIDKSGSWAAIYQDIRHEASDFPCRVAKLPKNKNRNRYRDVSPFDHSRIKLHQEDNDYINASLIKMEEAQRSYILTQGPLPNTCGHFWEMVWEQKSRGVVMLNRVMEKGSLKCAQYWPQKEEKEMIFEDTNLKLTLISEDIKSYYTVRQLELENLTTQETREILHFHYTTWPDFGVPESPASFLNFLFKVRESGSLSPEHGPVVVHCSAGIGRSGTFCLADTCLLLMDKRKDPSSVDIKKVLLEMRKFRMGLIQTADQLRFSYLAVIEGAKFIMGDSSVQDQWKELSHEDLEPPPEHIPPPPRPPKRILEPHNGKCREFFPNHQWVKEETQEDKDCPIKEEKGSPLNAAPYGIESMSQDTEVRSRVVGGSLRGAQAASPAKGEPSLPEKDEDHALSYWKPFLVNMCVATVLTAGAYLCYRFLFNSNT

[3] = system: STZ-induced diabetic rats; conditions: following intravenous insulin tolerance testing; cited from earlier work
Type 2 diabetics = conditions: cited from earlier work
ApoE (−/−) mice = experiment: Study 14: plasma total cholesterol, retinol, tocopherol; type: in vivo; conditions: 0.5 g/kg in 0.08% cholesterol diet vs same diet without statin; 14 weeks
Excerpt: The objective of this study was to investigate the effect of a statin (Mevacor) on cholesterol levels. Each of three groups of ApoE (−/−) mice was fed one of three diets, each diet containing a different cholesterol level (i.e., 0, 0.4, and 0.8 g/kg). A fourth group was fed the diet containing 0.8 g/kg of cholesterol with the further inclusion of 0.5 g/kg of a statin (i.e., Mevacor).

Wild Type C57BL/6J mice = experiment: Study 2/5: increasing 18:2 PUFA, insulin sensitivity; type: in vivo; conditions: 18:2 at 2%, 4%, 6% en; WT mice
Excerpt: Studies 2 and 5 were combined (n=18) where we compared TYPE B Leptr (−/−) (Study2) with the Wild Type mouse (Study 5) used in the backcross for Leptr (−/−), i.e., C57BL/6J. Here, we also examined the effects of food restriction on TYPE B (which over eat like TYPE A because neither have leptin receptors) and added the design of increasing 18:2 PUFA (increments at 2%, 4%, 6% en) while assessing the insulin sensitivity response. […] They had lower glucose than TYPE A, better insulin testing, yet became obese and insulin resistant, glucose intolerant, etc. […] This was the second clue (after n 3 FA in Study 1) that the type and mass of fatty acid intake can have a big influence on mouse insulin dynamics.

3T3-L1 cells = conditions: 240 nmol/L; cited from earlier work
alloxan diabetic rats = conditions: after six weeks; extract 100 mg/kg; cited from earlier work

Compound: O=C(O[C@@H]1Cc2c(O)cc(O)cc2O[C@@H]1c1cc(O)c(O)c(O)c1)c1cc(O)c(O)c(O)c1 [EGCG, epigallocatechin gallate]
- increase of affinity for the glucose transporter over EGC (glucose transporter): 2 to 4 orders of magnitude
- Peak maximum [1]: 1.3 μmol. 1-1
- detection in the urine [1]: not detected
- elimination T1/2 ([1]; ten healthy volunteers): 3.9 h

Compound: OC[C@H]1O[C@@](CO)(O[C@H]2O[C@H](CO)[C@@H](O)[C@H](O)[C@H]2O)[C@@H](O)[C@@H]1O [sucrose]
- plasma glucose peak level (diabetic subjects): 237 ± 12 mg/dL
- time of plasma glucose peak (diabetic subjects): ≤ 60 min
- change in insulin concentration (diabetic subjects): 59.3 ± 12 µU/mL
- blood glucose peak (healthy subjects): 143.3 ± 8.8 mg/dL
- time of blood glucose peak (healthy subjects): 30 min

Compound: C[C@@H]([C@H](C)O)[C@H](N)C(=O)O [ID-1101, 4-hydroxyisoleucine]
- hyperinsulinemia (Zucker fa/fa rats): reduced hyperinsulinemia

Compound: OC[C@H]1O[C@H](OC[C@H]2OC(O)(CO)[C@@H](O)[C@@H]2O)[C@H](O)[C@@H](O)[C@@H]1O (stereo partly shown) [isomaltulose]
- minimum effect dose (mental concentration) (adults): more than 5 g
- plasma glucose peak level (diabetic subjects): 195 ± 14 mg/dL
- time of plasma glucose peak (diabetic subjects): 120 min
- change in insulin concentration (diabetic subjects): 41.1 ± 7.4 µU/mL
- blood glucose peak (healthy subjects): 110.9 ± 4.9 mg/dL
- time of blood glucose peak (healthy subjects): 60 min

Compound: methylhydroxychalcone polymer [MHCP]
- inhibition of protein tyrosine phosphatase-1B [2]: inhibits

Compound: O=C(O)CCCCC1CCSS1 (stereo not shown) [LA, Lipoic acid]
- reduction in the area under the glucose curve [3]: 13%
- reduction of lactate and pyruvate after oral glucose loading (Type 2 diabetics; 1200 mg LA (oral) for 4-wks): 45%
- improvement of insulin sensitivity (Type 2 diabetics; 600, 1200 and 1800 mg/d oral): 17%
- oral dose reported to be safe (Type 2 diabetics; given as 3 doses of 600 mg): up to 1800 mg/d

Compound: CC[C@H](C)C(=O)O[C@H]1C[C@@H](C)C=C2C=C[C@H](C)[C@H](CC[C@@H]3C[C@@H](O)CC(=O)O3)[C@H]21 [statin]
- liver, aortal, and plasma cholesterol levels (ApoE (−/−) mice): significant reduction

Compound: CCCCC/C=C\C/C=C\CCCCCCCC(=O)O [18:2, linoleic acid]
- sensitivity to insulin (Wild Type C57BL/6J mice): appeared to increase sensitivity to insulin

Compound: insulin: insulin
- greatest glucose uptake relative to maximum uptake observed with BE (3T3-L1 cells): 2.7 times
- decrease in fasting blood glucose (alloxan diabetic rats): -183.1 mg/dL
